Data from article PMC8000724, “Trans-Epithelial Transport, Metabolism, and Biological Activity Assessment of the Multi-Target Lupin Peptide [sequence] (P5) and Its Metabolite [sequence] (P5-Met)” (Nutrients, 2021).

Tests used:
secreted mature PCSK9 = test: Quantification of PCSK9 secreted by HepG2 cells through ELISA; assay type: cell-based, human; settings: HepG2 supernatants, 50 µM, mean ± SD
Description: The supernatants collected from treated HepG2 cells (50.0 μM of P5 and/or P5-met) were centrifuged at 600 × g for 10 min at 4 °C and ELISA assay performed using protocol already optimized. They were recovered and diluted to the ratio 1:10 with DMEM in a new ice-cold tube. PCSK9 was quantified by ELISA (R&D System, Minneapolis, MN, USA). Briefly, the experiments were carried out at 37 °C, following the manufacturer’s instructions. Before starting the assay, human PCSK9 standard curve (20.0, 10.0, 5.0, 2.5, 1.25, and 0.625 ng/mL) was prepared by serial dilutions from a 40 ng/mL stock. 100 µL of the Assay Diluent RD1-9 (provided into the kit) were placed in each well, before adding the standards and the samples (50 µL) and incubating the ELISA plate for 2 h at RT. Subsequently, wells were washed 4 times with the wash buffer, and 200 µL of human PCSK9-conjugate (HRP-labelled anti-PCSK9) was added to each well for 2 h at RT. Following aspiration, wells was washed 4 times with the kit wash buffer. After the last wash, 200 µL of substrate solution were added to the wells and allowed to incubate for 30 min at RT. The reaction was stopped with 50 µL of the stop solution (2 M sulfuric acid) and the absorbance at 450 nm was measured using Synergy H1 microplate (Winooski, VT, USA).

LDLR = test: Western blot, LDLR protein level in HepG2 cells; assay type: cell-based, human; settings: HepG2, 50 µM, 24 h, mean ± SD
Description: The HepG2 cell line was bought from ATCC (HB-8065, ATCC from LGC Standards, Milan, Italy) and was cultured in DMEM high glucose with stable L-glutamine, supplemented with 10% FBS, 100 U/mL penicillin, 100 µg/mL streptomycin (complete growth medium) with incubation at 37 °C under 5% CO2 atmosphere.
Immunoblotting experiments were performed using optimized protocol. A total of 1.5 × 10^5 HepG2 cells/well (24-well plate) were treated with 50 μM of P5 and P5-met for 24 h. After each treatment, the supernatants were collected and stored at −20°C; cells were scraped in 40 µL ice-cold lysis buffer (RIPA buffer + inhibitor cocktail + 1:100 PMSF + 1:100 Na-orthovanadate + 1:1000 β-mercaptoethanol) and transferred in ice-cold microcentrifuge tubes. […] Total proteins were quantified by the Bradford’s method and 50 μg of total proteins loaded on a pre-cast 7.5% Sodium Dodecyl Sulfate-Polyacrylamide (SDS-PAGE) gel at 130 V for 45 min. […] Target proteins, on milk or BSA blocked membrane, were detected by primary antibodies as follows: anti-SREBP-2, anti-LDLR, anti-HMGCoAR, anti-PCSK9, anti HNF1-α and anti-β-actin. Secondary antibodies conjugated with HRP and a chemiluminescent reagent were used to visualize target proteins and their signal was quantified using the Image Lab Software (Biorad, Hercules, CA, USA). […]

Substance: H-LPKHSDAD-OH [Peptide P5-met]
- Decrease of the secretion of mature PCSK9 (secreted mature PCSK9): 22.2 ± 4.9%
- LDLR protein level versus the control (LDLR): 150.4 ± 29.2%
